# Laboratory results from patent US10391180B2, “Self-assembling complex for targeting chemical agents to cells” (CEDARS-SINAI MEDICAL CENTER, priority 2007, dated 2019).
# How the values were obtained:
# [1] = system: HER2+ tumors; assay: HerDox vs Dox biodistribution by Dox fluorescence imaging; assay type: in vivo, mice
# Description: FIGS. 11 (A)-(B) illustrates preferential targeting of HerDox to HER2+ tumors. Tumor-bearing mice were injected with 0.75 nmoles of HerDox or Dox via the tail vein and imaged with a custom small animal imager. FIG. 11 (A) depicts imaging of live mice after IV delivery of HerDox. Tumors are indicated by arrows. FIG. 11 (B) depicts imaging of tumors and tissues harvested at 3 h after injection of HerDox or Dox. Fluorescence signal from Dox is pseudo-colored according to the color bar, with a shift toward 100 indicating high fluorescence intensity. FIG. 11 (B) illustrates a comparison of the targeted delivery of Dox to HER2+ breast cancer cells with minimal delivery to other organs and tissues using a delivery system in accordance with an embodiment of the present invention (left panel), as compared with Dox administered alone (right panel).
# Dox emits a red fluorescence upon appropriate wavelength excitation, which can be used to detect biodistribution after systemic delivery of HerDox. Mice bearing 4-week old) tumors (˜700-800 mm^3) received a single tail vein injection of Dox or HerDox ([…] with respect to Dox cone) and images of live mice captured in real time, or of organs/tissues harvested at ˜3 h postinjection were acquired using a customized macro-illumination and detection system. Fluorescence was evident throughout the body at 10 min after HerDox injection, then quickly accumulated at the tumors by 20 min and remained detectable in the tumors up to 100 min after injection (FIG. 11 (A)).
# [2] = system: hearts of mice; assay: Cardiac tissue histology and echocardiography; assay type: in vivo
# From the text: (§1) FIGS. 12 (A)-(D) illustrates comparison of HerDox and Dox on (A) tumor growth, (B) animal weight, (C) cardiac tissue, and (D) cardiac function.
# At 25 days following injections, tumors and organs were harvested and processed for histochemistry. It is established that Dox can induce acute and long-term cardiotoxicity, therefore, the inventors examined the hearts of mice treated with HerDox or Dox.
# [3] = system: MDA-MB-231 (HER2−) cells; assay: Targeted toxicity, MTT assay, separate dishes; assay type: cell-based; conditions: HerDox/Dox 0.5 uM Dox; HerPBK10 0.1 uM; day 3
# Description: (§2) FIG. 7 illustrates targeted toxicity. Each cell line was exposed to HerDox (0.5 uM Dox cone), Dox alone (0.5 uM), or HerPBK10 alone for 4 h at 37° C. in complete (i.e. serum-containing) media, followed by aspiration to remove free conjugate, and addition of fresh medium while cells are grown continuously. Cell titer was determined by metabolic (i.e. MTT) assay. FIG. 7 upper panel illustrates the effect of HerDox on MDA-MB-231 (HER2−) and MDA-MB-435 (HER2+) cell survival. Relative surviving cell numbers are represented as a % of corresponding untreated cells. FIG. 7 lower panel illustrates comparison of HerDox, Dox alone, or HerPBK10 alone on HER2− and HER2+ cell survival. Relative survival (as % of untreated cells) is shown for Day 3 of treatment.
# (§3) The inventors compared the effect of HerDox or Dox alone at equivalent dosages (0.5 uM with respect to Dox concentration) on HER2+ and HER2− breast cancer cells in separate dishes. By three days, HerDox reduced HER2+ cell numbers by over 75% whereas HER2− cell survival was unaffected (FIG. 7). […] These findings emphasize the importance of targeting by showing that the untargeted drug affects nontarget (i.e. HER2−) cells. Importantly, the protein carrier, HerPBK10, alone at the equivalent concentration of protein in HerDox (0.1 uM) had no effect on either cell line (FIG. 7), including a lack of proliferation induction. To test receptor targeting, the inventors used free heregulin ligand (Her or eHRG) as a competitive inhibitor. […] As a final in vitro challenge, the inventors tested whether HerDox induces toxicity specifically to HER2+ cells in a mixed culture of HER2+ and HER2− breast cancer cells. To do this, the inventors produced a HER2− cell line tagged with green fluorescent protein (GFP) for cell identification in the mixed culture (FIG. 9 (A)). […] Altogether, these findings indicate that HerDox has the capacity to preferentially target toxicity to HER2+ cells. […] Moreover, the preferential cell killing of HER2+ cells in a mixed culture of HER2+ and HER2− cells implies that after death and lysis of the target cells, the Dox released into those cells is incapable of continuing to induce toxicity to HER2− cells. To further confirm the stability of HerDox in cell culture, HerDox was recovered from culture media in separate experiments at indicated time points and electrophoresed on an agarose gel, which was then illuminated by UV to detect Dox and stained with Coomassie blue to detect HerPBK10 protein (FIG. 9 (C)). […] Co-migration of HerPBK10 bands further verified that the conjugates remained intact in the cell media.
# [4] = system: MDA-MB-435 (HER2+) cells; assay: Targeted toxicity, MTT assay, separate dishes; assay type: cell-based; conditions: Dox 0.5 uM; HerPBK10 0.1 uM; day 3
# Description: as §2, §3
# [5] = system: bilateral flank tumors (HER2+); assay: In vivo tumor toxicity, tumor growth; set-up: species or system mice; conditions: daily tail vein injections, 0.004 mg/kg Dox conc, 7 consecutive days
# Description: as §1
# To assess in vivo tumor toxicity, mice bearing 3-4 week bilateral flank tumors began receiving daily tail vein injections of Dox or HerDox (0.004 mg/kg with respect to Dox conc), HerPBK10 alone (at equivalent protein concentration to HerDox) or saline for 7 consecutive days.
# [6] = system: MDA-MB-435 cells; assay: Intracellular translocation in live cells, Dox fluorescence microscopy; assay type: cell-based
# Description: FIGS. 14 (A)-(B) illustrates comparison of HerDox and Dox intracellular translocation and targets in live cells. MDA-MB-435 cells were incubated with HerDox or free Dox (0.5 uM) at 37° C. Live (unfixed) cells were imaged by brightfield and fluorescence as depicted in […], or DIC and confocal fluorescence, as depicted in FIG. 14 (B), microscopy. Dox is indicated by red or magenta pseudocolor.
# To understand the mechanism of HerDox mediated tumor cell death, the inventors examined HER2+ cells microscopically after treatment with HerDox, using Dox fluorescence to detect intracellular location. […] These dynamics, in addition to earlier targeting results, support a receptor-mediated HerDox entry mechanism. Even the intranuclear pattern of Dox when delivered by HerPBK10 differs from free Dox.
# [7] = in the presence of serum; cited from earlier work
# [8] = system: MDA-MB-435 cells; assay: HerPBK10 binding to cells in human serum, ELISA; assay type: cell-based; conditions: 1.2 ug/well, cells exposed 2 hours to human sera
# Description: FIG. 16 illustrates HerPBK10 binding to MDA-MB-435 cells in human serum from HER2+ or HER2− breast cancer patients. Cells were treated with HerPBK10 (1.2 ug/well) in media containing human serum from each of 5 HER2+ breast cancer patients or age matched HER2− controls, both obtained pre-chemotherapy treatment. Cells were processed for ELISA using an antibody directed at HerPBK10. Control (C) wells receiving HerPBK10 in media containing bovine serum without or with 100× molar excess competitive ligand inhibitor (+ Her) are indicated by open bars. Patient sera were provided by the WCRI tissue bank at Cedars-Sinai Medical Center. N=3 wells per treatment.
# To determine whether HerPBK10 can compete with circulating ligand that may be present in serum, the inventors tested HerPBK10 binding to HER2+ breast cancer cells in human serum obtained from HER2+ patients. The Women's Cancer Research Institute at Cedars-Sinai occasionally acquires limited quantities of patient serum, of which sera from HER2+ patients comprises an even smaller minority. […] Here, the inventors replaced the bovine serum in the routine culturing media with the human serum obtained from the acquired patient samples to assess whether the human serum, especially from HER2+ patients, inhibits cell binding. […]
# [9] = harvested at 3 h after injection
Molecule,"Dox fluorescence in kidneys [1, 9]","Dox fluorescence in liver [1, 9]","Dox fluorescence in tumors [1, 9]","Dox fluorescence in lungs and skeletal muscle ([1]; harvested ~3 h after injection, equivalent dose of Dox)",gross appearance of hearts ([2]; 25 days following injections),myocardium morphology (histochemistry) ([2]; 25 days following injections),"echocardiogram: stroke volume, cardiac output, left ventricular internal dimension and volume ([2]; treated mice)",effect on HER2− cell survival [3],effect on HER2+ cell numbers [4],tumor growth [5],"intracellular location of Dox fluorescence ([6]; 0.5 uM, 0 min of uptake)","intranuclear pattern of Dox ([6]; live cells, confocal)",receptor targeting under physiological conditions [7],"cell binding in serum from HER2+ patients, HER2− patients, or bovine serum [8]"
"COc1cccc2c1C(=O)c1c(O)c3c(c(O)c1C2=O)C[C@@](O)(C(=O)CO)C[C@@H]3O[C@H]1C[C@H](N)[C@H](O)[C@H](C)O1 [Dox, doxorubicin, reference compound]",detectable fluorescence,detectable fluorescence,detectable fluorescence,Lower levels of fluorescence,slightly enlarged and dilated,"focal degeneration, myofibrillar loss, increased cytosoplasmic vacuolization, and nuclear condensation or dissolution",modest to marked reductions,reduced both HER2+ and HER2− cells by the same order of magnitude,reduced both HER2+ and HER2− cells by the same order of magnitude,slows tumor growth,inside the cell at the nuclear periphery,accumulates in the cell nucleus,–,–
HerPBK10: receptor binding domain of heregulin fused to adenovirus penton base protein modified by a C-terminal decalysine,–,–,–,–,–,–,–,no effect,no effect,no effect,–,–,retains receptor targeting,no significant differences
